What was measured:
Conditions in all cases: in vivo, inhaled_or_intranasal; call rule not given here
[1] = Drug uptake in bronchi of BALB/cAnNCrlCrlj mouse at 0.5 umol/kg administered intranasally measured at 0.25 hrs by microautoradiographic analysis; type: ADME, BALB/cAnNCrlCr, Bronchus
[2] = tested on: Lung; assay: Drug uptake in lung of BALB/cAnNCrlCrlj mouse at 0.5 umol/kg administered intranasally measured at 0.25 hrs by microautoradiographic analysis; type: ADME, tissue-based, BALB/cAnNCrlCr
[3] = Drug uptake in BALB/cAnNCrlCrlj mouse ciliated columnar epithelial cells at 0.5 umol/kg administered intranasally measured at 24 hrs by microautoradiographic analysis; type: ADME, cell-based, BALB/cAnNCrlCr, Epithelial cell
[4] = Drug uptake in BALB/cAnNCrlCrlj mouse Goblet cells at 0.5 umol/kg administered intranasally measured at 24 hrs by microautoradiographic analysis; type: ADME, BALB/cAnNCrlCr
[5] = Drug uptake in BALB/cAnNCrlCrlj mouse bronchial gland at 0.5 umol/kg administered intranasally measured at 24 hrs by microautoradiographic analysis; type: ADME, BALB/cAnNCrlCr
[6] = Drug uptake in BALB/cAnNCrlCrlj mouse cuboidal epithelial cells at 0.5 umol/kg administered intranasally measured at 24 hrs by microautoradiographic analysis; type: ADME, cell-based, BALB/cAnNCrlCr, Epithelial cell
[7] = Drug uptake in BALB/cAnNCrlCrlj mouse terminal bronchiole at 0.5 umol/kg administered intranasally measured at 24 hrs by microautoradiographic analysis; type: ADME, tissue-based, BALB/cAnNCrlCr
[8] = Drug uptake in BALB/cAnNCrlCrlj mouse alveolar bronchiole at 0.5 umol/kg administered intranasally measured at 24 hrs by microautoradiographic analysis; type: ADME, BALB/cAnNCrlCr
[9] = Drug uptake in BALB/cAnNCrlCrlj mouse pulmonary alveoli at 0.5 umol/kg administered intranasally measured at 24 hrs by microautoradiographic analysis; type: ADME, BALB/cAnNCrlCr
[10] = tested on: Blood; assay: Drug uptake in BALB/cAnNCrlCrlj mouse pulmonary arterial blood at 0.5 umol/kg administered intranasally measured at 24 hrs by microautoradiographic analysis; type: ADME, tissue-based, BALB/cAnNCrlCr

Drug uptake [1]: Active
Drug uptake [2]: Active
Drug uptake [3]: Active
Drug uptake [4]: Active
Drug uptake [5]: Active
Drug uptake [6]: Active
Drug uptake [7]: Active
Drug uptake [8]: Active
Drug uptake [9]: Active
Drug uptake [10]: Active
Structure (SMILES): CCCCCCCC(=O)OC[C@@H](O)[C@@H](OC)[C@@H]1OC(C(=O)O)=C[C@H](N[14C](=N)N)[C@H]1NC(C)=O

Source: ChEMBL document CHEMBL3526090, “Pharmacokinetic mechanism involved in the prolonged high retention of laninamivir in mouse respiratory tissues after intranasal administration of its prodrug laninamivir octanoate” (Drug Metab Dispos, 2013)
